According to patent publication US9567318B2, “Substituted pyrimidine compounds and uses thereof” (Memorial Sloan-Kettering Cancer Center, priority 2009, dated 2017):

How the values were obtained:
[1] = tested on: Kasumi-1 acute myeloid leukemia cells; assay: Growth Inhibition Assay (Alamar blue), Kasumi-1; type: cell-based, human; settings: Homo sapiens, Kasumi 1, 72 h, Kasumi-1 cells
Outline: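 Adherent SKBr3 cells seeded at 8,000/well and suspension Kasumi-1 cells at 20,000/well, rested 24 h at 37 °C, then treated in triplicate for 72 h. Viability read by Alamar blue (440 µM) fluorescence (ex 530/em 580 nm) after 6 h; growth inhibition calculated versus untreated controls, corrected for the time-zero cell population.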

[2] = tested on: Mia-PaCa2, AsPC-1, BxPC3 and PL45 cells; assay: Apoptosis, acridine orange/ethidium bromide, pancreatic cancer cells; type: cell-based, human; settings: 10 μM, 24-48 h
Experimental: To determine whether cell death by YK5 was attributable to apoptosis, cells were treated with YK5 and effects on morphology, as well as on several effectors and mediators of apoptosis were analyzed (FIG. 13). To quantify the number of cells undergoing apoptosis, cells were stained with acridine orange/ethidium bromide (AO/EB) and analyzed under a fluorescence microscope for the percentage of viable, apoptotic (early and late) and necrotic cells. […] Most sensitive to YK5 were pancreatic cancer cells.
Apoptosis-Acridine Orange/Ethidium Bromide. Apoptosis was determined using acridine orange/ethidium bromide (AO/EB) double staining. Acridine orange is taken up by both viable and nonviable cells and emits green fluorescence if intercalated into double stranded nucleic acid (DNA) or red fluorescence if bound to single stranded nucleic acid (RNA). Ethidium bromide is taken up only by nonviable cells and emits red fluorescence by intercalation into DNA. (1) Viable cells have uniform green nuclei with organized structure. […] Following staining with Acridine Orange and Ethidium Bromide cells were visualized with a fluorescent microscope (Zeiss Axiovert 40 CFL) and counted. Percentage of apoptotic cells was determined from 200-300 cells counted in each group.

MDA-MB-231 cells = assay: Cell invasion assay (Boyden chamber Matrigel); type: cell-based, human; settings: 1 μM pre-treatment 24 h, 20 h migration
Experimental: (§1) FIG. 12. YK5 affects the major hallmarks of cancer: inhibits proliferation and invasiveness and arrests cancer cells in the cell cycle. (a) The indicated cancer cells were incubated with increasing concentrations of inhibitors and growth over 72 h was assessed. Y-axis values below 0% represent cell death of the starting population. Drugs were assayed in triplicate. (b) Mice (n=5) bearing MDA-MB-468 subcutaneously (s.c.) xenografted tumors that reached a volume of approximately 100-200 mm^3, were administered i.t. YK5 or vehicle as described in Methods. Tumor volume (mm^3) was estimated from caliper measurements. (c) Cells were treated for 24 h with indicated concentrations of YK5. DNA content was analyzed by propidium iodide staining and flow cytometry (left), whereas proteins by western blotting (right). (d) Hsp70 client proteins isolated by YK55-beads from SKBr3 and MDA-MB-468 extracts (500 μg) were analyzed by western blotting. […] (e) MDA-MB-231 breast cancer cells were treated for 24 h with YK5 (1 μM) and protein extracts were subjected to immunoblotting (upper) or pre-treated for 24 h with vehicle or YK5, and viable cells able to migrate through Matrigel over a 20 h period were quantified and data graphed (lower). […]
Cell Invasion Assay. […] In summary, cells were stained with tryptan blue and counted manually with a hemacytometer. […] Cells in ten fields per membrane were counted at ×100 objective.

[3] = tested on: MDA-MB-468 xenografted tumors; assay: Tumor xenografts; type: in vivo; settings: i.t., alternate days, mice
Experimental: as §1
Tumor Xenografts. […] Tumor volume was determined by measurement with Vernier calipers, and tumor volume was calculated as the product of its length×width^2×0.4. […]

[4] = tested on: infiltrating ductal carcinoma tissue; assay: Ex vivo treatment of fresh breast tumor tissue; parameters: species or system human; settings: 5 μM, 24 h post addition

Compound: C=CC(=O)Nc1cc(N)nc(Sc2c(OC)nc(N3CCN(C)CC3)nc2OC)n1 [YK5, N-(6-amino-2-(4,6-dimethoxy-2-(4-methylpiperazin-1-yl)pyrimidin-5-ylthio)pyrimidin-4-yl)acrylamide]
- IC50 [1]: 0.4 to 0.6 µM
- apoptosis in pancreatic cancer cells [2]: induced significant apoptosis
- invasion through Matrigel (MDA-MB-231 cells): inhibited the ability of MDA-MB-231 cells to invade through Matrigel
- growth of xenografted tumors [3]: inhibited the growth of MDA-MB-468 xenografted tumors
- tumor cells dead or dying [4]: 60%
